Assay results as given in EP4420661B1, “SMALL MOLECULES TARGETING GLYCOPROTEIN VI AS ANTIPLATELET AGENTS FOR USE IN THE PREVENTION AND/OR TREATMENT OF THROMBOSIS AND ASSOCIATED PATHOLOGIES” (Universidade de Santiago de Compostela, priority 2023, dated 2024).

What was measured:
Assay type in all cases: in vitro ADME
[1] = plasma protein binding, Rapid Equilibrium Dialysis (RED), human; conditions: 4h at 37°C
Method: (§1) Plasma from Seralab was employed in the assay and was carried out by employing Rapid Equilibrium Dialysis (RED) from Thermo Scientific.
(§2) The compounds were dissolved at 5 µM in plasma and added to the corresponding insert of the RED device. Dialysis buffer was added to the corresponding insert of the RED device. Plate was incubated for 4h at 37°C.
(§3) After the incubation period 50 µL aliquots of each chamber were transferred to empty vials. 50 µL of dialysis buffer were added to the plasma samples and 50 µL of plasma were added to the buffer samples. 300 µL of acetonitrile were added to all the samples and centrifuged at 4000 rpm 100 µL aliquots of the supernatants were transferred to a LC analysis plate. Samples were analyzed in a UPLC/MS/MS. Stationary phase: Acquity UPLC® BEHC18 1,7 µm (2.1 mm x 50 mm) (Waters). Gradient: A (H2O + 0.1% Formic acid); B (ACN + 0.1% Formic acid); Flow: 0.6mL/min Table 8: UPLC gradient / Protein binding assay
(§4) The chromatographic equipment employed was an ACQUITY UPLC / Xevo TQD System. Compound concentrations were calculated from the MS peak areas. Table 9: Plasma protein binding of the compounds of formula (I) in rat, mice, dogs and humans / (*) low recovery

[2] = tested on: Plasma protein; experiment: as above; conditions: 5 µM, 4h at 37°C
Method: as §1, §2, §3, §4

[3] = plasma protein binding, Rapid Equilibrium Dialysis (RED), dog; conditions: 4h at 37°C
Method: as §1, §2, §3, §4

[4] = tested on: Plasma protein; experiment: as above; conditions: 5 µM, 4h at 37°C
Method: as §1, §2, §3, §4

[5] = plasma protein binding, Rapid Equilibrium Dialysis (RED), rat; conditions: 4h at 37°C
Method: as §1, §2, §3, §4

[6] = tested on: Plasma protein; experiment: as above; conditions: 5 µM, 4h at 37°C
Method: as §1, §2, §3, §4

[7] = plasma protein binding, Rapid Equilibrium Dialysis (RED), mouse; conditions: 4h at 37°C, (*) low recovery for (If)
Method: as §1, §2, §3, §4

[8] = tested on: Plasma protein; experiment: as above; conditions: 5 µM, 4h at 37°C, (*) low recovery for (If)
Method: as §1, §2, §3, §4

O=C1NC(=O)C(c2ccccc2)(c2ccccc2)N1 [Phenytoin, reference compound]
fraction unbound at 4 h, 5 µM [1]: 0.178
Unbound fraction [2]: 17.77%
fraction unbound at 4 h, 5 µM [3]: 0.189
Unbound fraction [4]: 18.94%
fraction unbound at 4 h, 5 µM [5]: 0.138
Unbound fraction [6]: 13.76%
fraction unbound at 4 h, 5 µM [7]: 0.179
Unbound fraction [8]: 17.94%
